For data set [1] the following is noted: 18-membered ring.
The conditions of data set [2]: from CC(C)(CO)Cc1c(-c2ccnc(N3CCN(C(=O)OCc4ccccc4)CC3)c2)n(C(C)(C)C#N)c2ccc(-c3csc(C[C@H](NC(=O)OC(C)(C)C)C(=O)N4CCC[C@@H](C(=O)O)N4)n3)cc12; ester bond; 18-membered ring; EDC/HOBt/DIEA; DCM; 1.05 mM.

Where two headings read alike, the source gives them in different places.

Turning to `CO[C@@H](C)c1ncccc1-c1c2c3cc(ccc3n1CCOC1CCOCC1)-c1csc(n1)C[C@H](NC(=O)OC(C)(C)C)C(=O)N1CCC[C@H](N1)C(=O)OCC(C)(C)C2`, the ring closure, isolated yield in data set [1] (from CO[C@@H](C)c1ncccc1-c1c(CC(C)(C)CO)c2cc(-c3csc(C[C@H](NC(=O)OC(C)(C)C)C(=O)N4CCC[C@@H](C(=O)O)N4)n3)ccc2n1CCOC1CCOCC1, ester bond, EDC/HOBt/DIEA, DCM, 7.0 mM) was found to be 68%.

On to `CCn1c(-c2cccnc2[C@H](C)OC)c2c3cc(ccc31)-c1csc(n1)[C@@H](OCC(F)F)[C@H](NC(=O)OC(C)(C)C)C(=O)N1CCC[C@H](N1)C(=O)OCC(C)(C)C2`, for which the ring closure, isolated yield in data set [1] (from CCn1c(-c2cccnc2[C@H](C)OC)c(CC(C)(C)COC(=O)[C@@H]2CCCN(C(=O)[C@@H](NC(=O)OC(C)(C)C)[C@H](OCC(F)F)c3nc(Br)cs3)N2)c2cc(B3OC(C)(C)C(C)(C)O3)ccc21, cc_pd bond, Pd(DtBPF)Cl2/K3PO4, toluene/1,4-dioxane/H2O 3:1:1, 10.0 mM, 60.0 °C, 1.0 h) stood at 59%.

With `CCn1c(-c2cc(N3CCN(C(=O)OCc4ccccc4)CC3)cnc2[C@H](C)OC)c2c3cc(ccc31)-c1csc(n1)C[C@H](NC(=O)OC(C)(C)C)C(=O)N1CCC[C@H](N1)C(=O)OCC(C)(C)C2`, in data set [1] (from CCn1c(-c2cc(N3CCN(C(=O)OCc4ccccc4)CC3)cnc2[C@H](C)OC)c(CC(C)(C)CO)c2cc(-c3csc(C[C@H](NC(=O)OC(C)(C)C)C(=O)N4CCC[C@@H](C(=O)O)N4)n3)ccc21, ester bond, EDC/HOBt/DIEA, MeCN, 10.3 mM, 25.0 °C), the ring closure, isolated yield came to 54.8%.

As to `CC1(C)COC(=O)[C@@H]2CCCN(N2)C(=O)[C@@H](NC(=O)OC(C)(C)C)Cc2nc(cs2)-c2ccc3c(c2)c(c(-c2ccnc(N4CCN(C(=O)OCc5ccccc5)CC4)c2)n3C(C)(C)C#N)C1`, in data set [2], the ring closure, crude yield came to 52%.

With `CC1(C)COC(=O)[C@@H]2CCCN(N2)C(=O)[C@@H](NC(=O)OC(C)(C)C)Cc2nc(cs2)-c2ccc3[nH]c(I)c(c3c2)C1`, the ring closure, isolated yield in data set [1] (from CC(C)(CO)Cc1c(I)[nH]c2ccc(-c3csc(C[C@H](NC(=O)OC(C)(C)C)C(=O)N4CCC[C@@H](C(=O)O)N4)n3)cc12, ester bond, EDC/HOBt/DIEA, DCM, 17.6 mM) turned out to be 45.9%.

For the origin of these results see US11690915.
